# In patent US12558354B2, “Tumor necrosis factor alpha (TNF-alpha) small molecule inhibitor” (AJOU UNIVERSITY INDUSTRY-ACADEMIC COOPERATION FOUNDATION, priority 2019, dated 2026):
# “Also recorded” adds a separate entry of the source.
# How the values were obtained:
# [1] = target: T1, recombinant human TNF-α (rhTNF-α) (Homo sapiens, UniProt P01375); experiment: Cell death attenuation assay, act-D-sensitized HDFs with rhTNF-α; assay type: cell-based
# T1 construct: purchased Miltenyi Biotec
# Experimental: (§1) HDFs (10^4/well) and L929 cell lines (1.5×10^4/well) were seeded in 96-well plates and grown overnight under appropriate conditions. The next day, HDFs and L929 cells were pretreated with 1 μg/ml act-D and 0.1 μg/ml act-D, respectively, followed by incubated for 30 minutes. Thereafter, a 1-hour-preincubated mixture of 10 ng/ml rhTNFα with test compounds or 1 ng/ml rmTNFα with test compounds, was applied to HDFs and L929 cells, respectively. The cells were incubated for 24 hours post-treatment, and survival was measured by the MTT assay. Cell viability was calculated with reference to the no-treatment control group. The obtained values were normalized with respect to the act-D treatment group and then used to calculate death attenuation (%) rate using the following equation: […]
# [2] = target: T1, recombinant human TNF-α (rhTNF-α); experiment: TNF-α-mediated hIL-8 secretion in HDFs (ELISA); assay type: cell-based; conditions: 24 hours
# Experimental: (§2) HDFs were seeded at a density of 10^4/well in a 96-well plate (BD Biosciences) and grown overnight. The cells were treated for 24 hours with a 1-hour-pre-incubated mixture of rhTNF-α and test compounds. IL-8 secretion was assessed by a human IL-8 uncoated ELISA kit (eBioscience, Inc., San Diego, CA, USA), and IL-6 secretion level was assessed by a human IL-6 ELISA MAX™ Deluxe kit (BioLegend, San Diego, CA, USA). The microtiter plates were then analyzed at an appropriate wavelength using a microplate spectrophotometer system (Molecular Devices, Silicon Valley, California).
# [3] = tested on: TNF-α-dependent signaling pathways (NF-κB, MAPKs, caspases 3 and 8); experiment: Western blot of TNF-α-dependent signaling pathways in L929 cells; assay type: cell-based, mouse
# Experimental: Total protein was extracted from the treated cells using an M-PER mammalian protein extraction reagent (Thermo Fisher Scientific, Inc.). The cell pellets were dissolved in a mixture of M-PER with protease and phosphatase inhibitor cocktail (Thermo Fisher Scientific, Inc.) at 4° C. for 1 minute, and the lysate thus obtained was centrifuged at 16,000×g and 4° C. for 10 minutes. The supernatant containing the protein was collected in a separate Eppendorf tube, and a BCA assay (Sigma-Aldrich) was performed for protein quantification. 20 Hg of a protein sample was placed in a 10-12% polyacrylamide gel (containing SDS), and the separated protein was transferred to a nitrocellulose membrane (HYBOND ECL™; Amersham Pharmacia Biotech Inc, Piscataway, New Jersey) of a mini-PROTEAN tetra cell and mini trans-blot electrophoretic transfer cell system (Bio-Rad Laboratories). Membrane blocking was performed with 5% nonfat dried milk for 1 hour. The membrane was subjected to immunoblotting through gentle shaking overnight at a temperature of 4° C. with certain primary antibodies, i.e. antibodies to (phospho-)p-p65, p-JNK, JNK, p-ERK, ERK, cleaved caspase 3 (Cell Signaling Technology Inc., Danvers, MA, USA), p-p38, caspase 8, and β-actin (Santa Cruz Biotechnology Inc., Dallas, TX, USA). The next day, after rigorous washing with PBST, the membrane was incubated with peroxidase-conjugated anti-mouse or anti-rabbit IgG antibodies at room temperature for 2 hours. Protein was detected using a SuperSignal West Pico ECL solution (Thermo Fisher Scientific, Inc.) and visualized with a CHEMIDOC™ Touch Imaging System (Bio-Rad Laboratories).
# [4] = target: T1, recombinant human TNF-α (rhTNF-α); experiment: TNF-α-mediated hIL-6 secretion in HDFs (ELISA); assay type: cell-based; conditions: 24 hours
# Experimental: as §2
# [5] = tested on: human dermal fibroblasts (HDFs); experiment: Cell viability (MTT) assay in human dermal fibroblasts; assay type: cell-based; conditions: 24 hours
# Experimental: (§3) FIG. 8A is a graph showing the effects of TIM1 and a solvent thereof, DMSO, on the viability of human dermal fibroblasts, in which cells (10^4/well) were treated with DMSO at 3 different concentrations (0.5, 1, and 2%) and TIM1 at 8 different concentrations (1, 3.125, 6.25, 12.5, 25, 50, 100, and 200 μM) for 24 hours, and the cell viability was monitored by an MTT assay. FIG. 8B is a graph showing the effect of TIM1 on the viability of a mouse fibrosarcoma cell line [L929 (1.5×10^4/well)] under the same conditions as in FIG. 8A. All experiments were independently performed 4 times, and mean±SEM of the independent experiments was calculated using a two-tailed paired Student's t-test (*P<0.05).
# (§4) In order to measure cell viability, a colorimetric […] (MTT) assay (Sigma-Aldrich Co.) was performed. HDFs were seeded at a density of 10^4/well in 96-well plates (BD Biosciences, San Jose, CA, USA), grown overnight, and then treated with a test compound at various concentrations for 24 hours. The next day, the medium was replaced with a medium (100 μl/well) containing a 10% MTT solution, followed by incubated at 37° C. for 3 hours. This solution was replaced with DMSO (100 μl/well), and the plates were incubated at room temperature for 30 minutes. Thereafter, the plates were read at a wavelength of 540 nm using a microplate spectrophotometer system (Molecular Devices, Silicon Valley, California).
# [6] = target: T2, recombinant mouse TNF-α (rmTNF-α) (Mus musculus, UniProt P06804); experiment: Cell death attenuation assay, act-D-sensitized L929 cells with rmTNF-α; assay type: cell-based
# T2 construct: purchased Miltenyi Biotec
# T2 sequence (P06804 80-235 limits assumed): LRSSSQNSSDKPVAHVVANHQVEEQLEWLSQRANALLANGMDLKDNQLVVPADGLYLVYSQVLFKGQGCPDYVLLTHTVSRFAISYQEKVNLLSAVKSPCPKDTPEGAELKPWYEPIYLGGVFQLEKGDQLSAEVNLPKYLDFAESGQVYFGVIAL
# Experimental: as §1
# [7] = target: T3, recombinant mouse TNF-α homotrimer (Mus musculus, UniProt P06804); experiment: Dissociation of TNF-α trimerization assembly (cross-linking, Western blot), mouse; assay type: biochemical; conditions: cross-linked with BS3, Western blot
# T3 construct: purchased Miltenyi Biotec
# T3 sequence (P06804 80-235 limits assumed): T2 sequence (P06804 80-235 limits assumed)
# Experimental: (§5) Inhibitors were incubated with 100 ng of recombinant TNF-α at 37° C. for 1 hour and then cross-linked with 4.8 mM BS3 (Thermo Fisher Scientific, Inc.) at room temperature for 30 minutes. Then, a 1/10 volume of 1 M Tris-HCl (pH 7.5) was added to stop the reaction. Thereafter, samples were separated by SDS-PAGE, followed by Western blotting with anti-TNF-α antibody (Cell Signaling Technology Inc.).
# [8] = target: T4, recombinant human TNF-α homotrimer (Homo sapiens, UniProt P01375); experiment: Dissociation of TNF-α trimerization assembly (cross-linking, Western blot), human; assay type: biochemical; conditions: cross-linked with BS3, Western blot
# T4 construct: purchased Miltenyi Biotec
# T4 sequence (P01375 77-233 limits assumed): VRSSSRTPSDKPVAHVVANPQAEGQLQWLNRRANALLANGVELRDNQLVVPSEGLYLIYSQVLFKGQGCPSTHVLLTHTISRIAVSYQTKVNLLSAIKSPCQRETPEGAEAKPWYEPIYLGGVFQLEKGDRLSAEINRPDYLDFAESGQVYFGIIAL
# Experimental: as §5
# [9] = tested on: murine fibrosarcoma cell line L929; experiment: Cell viability (MTT) assay in L929 cells; assay type: cell-based; conditions: L929, up to 200 μM, 24 hours
# Experimental: as §3
# as §4, with “This solution was replaced with DMSO (100 μl/well), and the plates were incubated at room temperature for 30 minutes.” left out
# TNF-α = TNF-α (Homo sapiens, UniProt P01375); conditions: target TNF-α, literature; cited from earlier work
# Sequence of TNF-α (P01375 77-233 limits assumed, species assumed): as the sequence (P01375 77-233 limits assumed) above
# TNFRI = target: T5, TNFRI (Homo sapiens, UniProt P19438); conditions: target TNFRI, literature; cited from earlier work
# T5 sequence (P19438 30-455): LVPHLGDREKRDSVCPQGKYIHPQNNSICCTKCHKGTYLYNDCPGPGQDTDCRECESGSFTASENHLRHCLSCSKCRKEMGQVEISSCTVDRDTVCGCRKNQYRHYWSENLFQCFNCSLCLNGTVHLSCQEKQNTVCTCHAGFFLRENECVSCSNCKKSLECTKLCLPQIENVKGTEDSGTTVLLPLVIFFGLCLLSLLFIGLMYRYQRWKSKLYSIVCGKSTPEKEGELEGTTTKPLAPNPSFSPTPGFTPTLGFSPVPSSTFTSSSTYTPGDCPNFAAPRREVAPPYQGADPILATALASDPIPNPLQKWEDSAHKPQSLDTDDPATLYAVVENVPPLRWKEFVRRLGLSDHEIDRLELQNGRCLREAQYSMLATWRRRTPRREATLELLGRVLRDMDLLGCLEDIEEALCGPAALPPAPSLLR
# [10] = HDFs, rhTNF-α 1 ng/ml pre-incubated 1 hour
# [11] = L929, 20 μM, rmTNF-α 1 ng/ml, 5-30 minutes
# T1 sequence (P01375 77-233 limits assumed): as the sequence (P01375 77-233 limits assumed) above
compound,measurement,setting,value
"C#Cc1cccc(Nc2nc(-c3cc(C)n(NC(=O)c4nn(C)c(=O)c5ccccc45)c3C)cs2)c1 [TIM1, N-(3-{2-[(3-ethynylphenyl)amino]-1,3-thiazol-4-yl}-2,5-dimethylpyrrol-1-yl)-3-methyl-4-oxophthalazine-1-carboxamide]",IC50,[1],26.2 µM
same,attenuation of TNF-α-induced apoptosis,"[1]; act-D-sensitized HDFs, rhTNF-α 10 ng/ml, 1-100 μM",Significant attenuation
same,inhibition of TNF-α-mediated hIL-8 secretion,"[2]; HDFs, 1, 10, 50 and 100 μM",inhibited TNF-α-mediated secretion
same,IC50,[2]; [10],16.7 µM
same,TNF-α-mediated phosphorylation of the p65 subunit (NF-κB),[3]; [11],attenuated
same,"phosphorylation of MAPKs (p38 MAPK, JNK, ERK)",[3]; [11],inhibited
same,formation of cleaved active caspases 3 and 8,"[3]; L929, TNF-α stimulation",blocked
same,inhibition of TNF-α-mediated hIL-6 secretion,"[4]; HDFs, 1, 10, 50 and 100 μM",inhibited TNF-α-mediated secretion
same,IC50,[4]; [10],6.3 µM
same,lethality / cytotoxicity at increasing concentrations,"[5]; HDF, up to 200 μM",no lethality; also recorded: does not show cytotoxicity up to 200 μM
same,"cytotoxicity (cell viability, MTT assay)",[5]; HDFs,no cytotoxicity up to a concentration of 50 μM; also recorded: did not exhibit cytotoxicity even at high concentrations (up to 100 μM)
same,IC50,[6],24.9 µM
same,inhibition of rmTNF-α-mediated proapoptotic pathway / cell death,"[6]; act-D-sensitized L929, rmTNF-α 1 ng/ml, 1-100 μM",inhibited the rmTNF-α-mediated proapoptotic pathway in L929 cells in a concentration-dependent manner
same,"formation of functional homotrimers, rmTNF-α",[7],inhibited the formation of functional homotrimers
same,"formation of functional homotrimers, rhTNF-α",[8],inhibited the formation of functional homotrimers
same,lethality at increasing concentrations,[9],no lethality
O=C1Sc2c(S(=O)(=O)Nc3ccc(O)cc3)cc(S(=O)(=O)Nc3ccc(O)cc3)c3cccc1c23 [AP-906/41640035],IC50,TNF-α,14 µM
Physcion-8-O-β-D-monoglucoside,Kd,TNFRI,0.376 µM
